Experimental data published in PubChem BioAssay AID1918935 (Molecular Pharmacology Branch, DTP, NCI, 2023).

System: 324938-238-R-J1-PDC complex spheroid viability
Assay: Anticancer human tumor 324938-238-R-J1-PDC patient-derived bladder carcinoma cell line growth inhibition
Conditions: for IC50: curve of first compound; for viability, T/C: stronger effect = lower value
Method in brief: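 Multicellular complex spheroids of tumor cells with human endothelial cells (HUVEC) and mesenchymal stem cells; the LSD1 inhibitor iadademstat was combined with standard-of-care or investigational agents. Top concentration at or near clinical Cmax, half-log dilutions; final DMSO ≤0.25%.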

[1] = second compound 0.1 µM, first compound 0.000949 µM
[2] = second compound 0.1 µM, first compound 0.003 µM
[3] = second compound 0.1 µM, first compound 0.00949 µM
[4] = second compound 0.1 µM, first compound 0.03 µM
[5] = second compound 0.1 µM, first compound 0.0949 µM
[6] = second compound 0.1 µM, first compound 0.3 µM
[7] = second compound 0.316 µM, first compound 0.000949 µM
[8] = second compound 0.316 µM, first compound 0.003 µM
[9] = second compound 0.316 µM, first compound 0.00949 µM
[10] = second compound 0.316 µM, first compound 0.03 µM
[11] = second compound 0.316 µM, first compound 0.0949 µM
[12] = second compound 0.316 µM, first compound 0.3 µM
[13] = second compound 1 µM, first compound 0.000949 µM
[14] = second compound 1 µM, first compound 0.003 µM
[15] = second compound 1 µM, first compound 0.00949 µM
[16] = second compound 1 µM, first compound 0.03 µM
[17] = second compound 1 µM, first compound 0.0949 µM
[18] = second compound 1 µM, first compound 0.3 µM
[19] = second compound 3.16 µM, first compound 0.000949 µM
[20] = second compound 3.16 µM, first compound 0.003 µM
[21] = second compound 3.16 µM, first compound 0.00949 µM
[22] = second compound 3.16 µM, first compound 0.03 µM
[23] = second compound 3.16 µM, first compound 0.0949 µM
[24] = second compound 3.16 µM, first compound 0.3 µM
[25] = second compound 10 µM, first compound 0.000949 µM
[26] = second compound 10 µM, first compound 0.003 µM
[27] = second compound 10 µM, first compound 0.00949 µM
[28] = second compound 10 µM, first compound 0.03 µM
[29] = second compound 10 µM, first compound 0.0949 µM
[30] = second compound 10 µM, first compound 0.3 µM
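Note: spheroids also contain HUVEC and human MSCs and agents combined with iadademstat; spheroids exposed to agents for 7 days before readout.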

CC[C@@]1(O)C(=O)OCc2c1cc1n(c2=O)Cc2cc3c(CN(C)C)c(O)ccc3nc2-1 + NC1CC1c1ccc(-c2cccc(O)c2)cc1
IC50 (second compound 0.1 µM): 1.32 nM | IC50 (second compound 0.316 µM): 1.13 nM | IC50 (second compound 1 µM): 1.38 nM | IC50 (second compound 3.16 µM): 1.22 nM | IC50 (second compound 10 µM): 1.17 nM | viability, T/C (second compound 0.1 µM, first compound 0.000316 µM): 82.5% | viability, T/C (second compound 0.1 µM, first compound 0.001 µM): 57% | viability, T/C (second compound 0.1 µM, first compound 0.00316 µM): 27% | viability, T/C (second compound 0.1 µM, first compound 0.01 µM): 7.09% | viability, T/C (second compound 0.1 µM, first compound 0.0316 µM): 7.47% | viability, T/C (second compound 0.1 µM, first compound 0.1 µM): 8.37% | viability, T/C (second compound 0.316 µM, first compound 0.000316 µM): 68.2% | viability, T/C (second compound 0.316 µM, first compound 0.001 µM): 52.5% | viability, T/C (second compound 0.316 µM, first compound 0.00316 µM): 25.4% | viability, T/C (second compound 0.316 µM, first compound 0.01 µM): 6.5% | viability, T/C (second compound 0.316 µM, first compound 0.0316 µM): 7.53% | viability, T/C (second compound 0.316 µM, first compound 0.1 µM): 6.02% | viability, T/C (second compound 1 µM, first compound 0.000316 µM): 67.8% | viability, T/C (second compound 1 µM, first compound 0.001 µM): 58.2% | viability, T/C (second compound 1 µM, first compound 0.00316 µM): 27.7% | viability, T/C (second compound 1 µM, first compound 0.01 µM): 6.31% | viability, T/C (second compound 1 µM, first compound 0.0316 µM): 6.22% | viability, T/C (second compound 1 µM, first compound 0.1 µM): 8.13% | viability, T/C (second compound 3.16 µM, first compound 0.000316 µM): 69.7% | viability, T/C (second compound 3.16 µM, first compound 0.001 µM): 53.6% | viability, T/C (second compound 3.16 µM, first compound 0.00316 µM): 28.6% | viability, T/C (second compound 3.16 µM, first compound 0.01 µM): 7% | viability, T/C (second compound 3.16 µM, first compound 0.0316 µM): 5.72% | viability, T/C (second compound 3.16 µM, first compound 0.1 µM): 6.54% | viability, T/C (second compound 10 µM, first compound 0.000316 µM): 66.1% | viability, T/C (second compound 10 µM, first compound 0.001 µM): 52.7% | viability, T/C (second compound 10 µM, first compound 0.00316 µM): 28.8% | viability, T/C (second compound 10 µM, first compound 0.01 µM): 10.2% | viability, T/C (second compound 10 µM, first compound 0.0316 µM): 8.64% | viability, T/C (second compound 10 µM, first compound 0.1 µM): 9.59%

CCc1c2c(nc3ccc(O)cc13)-c1cc3c(c(=O)n1C2)COC(=O)[C@]3(O)CC + NC1CC1c1ccc(-c2cccc(O)c2)cc1
IC50 (second compound 0.1 µM): < 0.949 nM | IC50 (second compound 0.316 µM): < 0.949 nM | IC50 (second compound 1 µM): < 0.949 nM | IC50 (second compound 3.16 µM): < 0.949 nM | IC50 (second compound 10 µM): < 0.949 nM | viability, T/C [1]: 8.63% | viability, T/C [2]: 8.28% | viability, T/C [3]: 6.38% | viability, T/C [4]: 2.62% | viability, T/C [5]: 1.19% | viability, T/C [6]: 0.47% | viability, T/C [7]: 7.65% | viability, T/C [8]: 7.41% | viability, T/C [9]: 5.98% | viability, T/C [10]: 2.79% | viability, T/C [11]: 0.46% | viability, T/C [12]: 0.55% | viability, T/C [13]: 6.57% | viability, T/C [14]: 8.14% | viability, T/C [15]: 6.37% | viability, T/C [16]: 1.95% | viability, T/C [17]: 0.51% | viability, T/C [18]: 0.15% | viability, T/C [19]: 6.75% | viability, T/C [20]: 6.96% | viability, T/C [21]: 6.25% | viability, T/C [22]: 2.46% | viability, T/C [23]: 0.53% | viability, T/C [24]: 0.31% | viability, T/C [25]: 10.5% | viability, T/C [26]: 9.76% | viability, T/C [27]: 7.12% | viability, T/C [28]: 2.62% | viability, T/C [29]: 0.17% | viability, T/C [30]: 0.23%

Nc1ccn(C2OC(CO)C(O)C2(F)F)c(=O)n1 (stereo not given) + NC1CC1c1ccc(-c2cccc(O)c2)cc1
IC50 (second compound 0.1 µM): < 0.949 nM | IC50 (second compound 0.316 µM): < 0.949 nM | IC50 (second compound 1 µM): < 0.949 nM | IC50 (second compound 3.16 µM): < 0.949 nM | IC50 (second compound 10 µM): < 0.949 nM | viability, T/C [1]: 11.1% | viability, T/C [2]: 8.09% | viability, T/C [3]: 6.87% | viability, T/C [4]: 6.29% | viability, T/C [5]: 6.35% | viability, T/C [6]: 5.04% | viability, T/C [7]: 10.9% | viability, T/C [8]: 7.27% | viability, T/C [9]: 5.74% | viability, T/C [10]: 5.98% | viability, T/C [11]: 5.39% | viability, T/C [12]: 5.59% | viability, T/C [13]: 11% | viability, T/C [14]: 7.32% | viability, T/C [15]: 5.8% | viability, T/C [16]: 6.74% | viability, T/C [17]: 5.16% | viability, T/C [18]: 4.64% | viability, T/C [19]: 10.4% | viability, T/C [20]: 6.79% | viability, T/C [21]: 7.61% | viability, T/C [22]: 5.95% | viability, T/C [23]: 5.45% | viability, T/C [24]: 5.23% | viability, T/C [25]: 15.8% | viability, T/C [26]: 11.2% | viability, T/C [27]: 10.4% | viability, T/C [28]: 7.49% | viability, T/C [29]: 5.31% | viability, T/C [30]: 5.65%
